From patent US9423404B1, “Method of screening for an agent that enhances beige fat adipogenesis” (The Board of Trustees of the Leland Stanford Junior …, priority 2013, dated 2016)

Legend:
[1] = system: differentiated human fibroblasts; test: Lipolysis assay (glycerol release); type: cell-based; conditions: for increase in glycerol release compared to the undifferentiated cells: 10 μM isoproterenol 24 hrs
Experimental: Lipolysis assay. To measure lipolysis activity, control and differentiated fibroblasts, were starved in DMEM containing 1% FBS overnight. Cells were then incubated for 24 hrs in HBSS (Hank's balanced salt solution) containing 2% fatty-acid-free BSA and 10 μM isoproterenol. The culture medium was collected for glycerol measurement using the free glycerol reagent (Sigma, St. Louis, Mo.).

CYP24A1 = test: RT-qPCR of CYP24A1 (24-hydroxylase), marker of calcitriol responsiveness; type: cell-based, human; conditions: H305Q mutant, 10 nM calcitriol, ex vivo
Experimental: FIG. 3. […] (A) Control and HVDRR fibroblasts were treated with vehicle (0.1% ethanol) or 10 nM calcitriol for 6 hr. RT-qPCR assays were carried out for CYP24A1 a marker of calcitriol responsiveness. DM denotes double mutant with H305Q mutation in the VDR and BSCL2 mutation. […] Relative gene expression of UCP1 in WT and HVDRR fibroblasts differentiated with DIMR or DIMR plus 10 nM calcitriol for 14 days.
Real-time RT-PCR. […] RNA was isolated using RNeasy Plus Mini Kit (Qiagen, Valencia, Calif.). cDNA was prepared using Maxima Universal First Strand cDNA Synthesis kit (Fisher Scientific, Pittsburgh, Pa.). Real time PCR was performed using the DyNAmo ColorFlash qPCR kit (Fisher Scientific). Relative changes in mRNA expression were assessed by the 2-ΔΔC(T) method and normalized to that of the reference gene glyceraldehyde phosphate dehydrogenase (GAPDH). The values from vehicle treated normal control fibroblasts were set at 1. Assays were performed in triplicate.

Row | Compound | induction of lipolysis compared to the H305Q single mutant ([1]; H305Q/BSCL2 double mutant) | increase in glycerol release compared to the undifferentiated cells ([1]; HVDRR cells differentiated with DIMR) | increase in glycerol release compared to the undifferentiated cells ([1]; WT control cells differentiated with DIMR) [fold] | induction of 24-hydroxylase (CYP24A1) expression by VDR (CYP24A1)
1 | CC(C)NCC(O)c1ccc(O)c(O)c1 (stereo not shown) [isoproterenol] | significantly less induction of lipolysis | 1.5-4 fold | 2.5 | –
2 | C=C1/C(=C\C=C2/CCC[C@]3(C)[C@@H]([C@H](C)CCCC(C)(C)O)CC[C@@H]23)C[C@@H](O)C[C@@H]1O [calcitriol] | – | – | – | rescues the induction
